{
  "source": "ChEMBL document CHEMBL4130428",
  "about": "“Recent advances in polysaccharides for osteoarthritis therapy” (2017)",
  "key": {"Homo sapiens [1]": {"tested_on": "Homo sapiens", "assay": "Anti-osteoarthritis activity in knee osteoarthritis patient assessed as cartilage volume in medial condylar area dosed orally for 2 consecutive years by MRI method relative to control", "format": "functional"}, "Homo sapiens [2]": {"tested_on": "Homo sapiens", "assay": "Anti-osteoarthritis activity in knee osteoarthritis patient assessed as cartilage volume in medial area dosed orally for 2 consecutive years by MRI method relative to control", "format": "functional"}},
  "data": [
    {"smiles": "Cc1ccc(-c2cc(C(F)(F)F)nn2-c2ccc(S(N)(=O)=O)cc2)cc1", "note": "[CELECOXIB]", "values": [
      {"measurement": "inhibition (INH)", "setting": "Homo sapiens [1]", "value": 7.7, "unit": "%"},
      {"measurement": "inhibition (INH)", "setting": "Homo sapiens [2]", "value": 8.1, "unit": "%"}
    ]}
  ]
}
